Assay results taken from US7186732B2, “Non-imidazole aryloxyalkylamines” (Ortho-McNeil Pharmaceutical, Inc., priority 2000, dated 2007).
Where two headings read alike, the source gives them in different places.

Target: T1, human histamine H3 receptor (Homo sapiens, UniProt Q9Y5N1)
T1 construct: expressed in transfected cells; membranes prepared from cell pellets
Assay: [3H]-N-methylhistamine binding to membranes of histamine H3 receptor-expressing SK-N-MC cells
Protocol: Thus in the present invention receptor binding was determined using the human histamine H3 receptor (See Lovenberg et al Mol. Pharmacol. 1999, 1107). Screening using the human receptor is particularly important for the identification of new therapies for the treatment of human disease. Conventional binding assays for example are determined using rat synaptosomes (Garbarg et al J. Pharmacol. Exp. Ther. 1992, 263, 304), rat cortical membranes (West et al Mol. Pharmacol. 1990, 610), and guinea pig brain (Korte et al Biochem. Biophys. Res. Commun. 1990, 978).
Transfection of Cells with Human Histamine Receptor
A 10 cm tissue culture dish with a confluent monolayer of SK-N-MC cells was split two days prior to transfection. Using sterile technique the media was removed and the cells were detached from the dish by the addition of trypsin. One fifth of the cells were then placed onto a new 10 cm dish. Cells were grown in a 37° C. incubator with 5% CO2 in Minimal Essential Media Eagle with 10% Fetal Bovine Serum. After two days cells were approximately 80% confluent. These were removed from the dish with trypsin and pelleted in a clinical centrifuge. The pellet was then re-suspended in 400 μL complete media and transferred to an electroporation cuvette with a 0.4 cm gap between the electrodes (Bio-Rad #165–2088). One microgram of supercoiled H3 receptor cDNA was added to the cells and mixed. The voltage for the electroporation was set at 0.25 kV, the capacitance was set at 960 μF. After electroporation the cells were diluted into 10 mL complete media and plated onto four 10 cm dishes. Because of the variability in the efficiency of electroporation, four different concentrations of cells were plated. The ratios used were; 1:20, 1:10, 1:5, with the remainder of the cells being added to the fourth dish. The cells were allowed to recover for 24 hours before adding the selection media (complete media with 600 μg/mL G418). After 10 days dishes were analyzed for surviving colonies of cells. Dishes with well isolated colonies were used. Cells from individual colonies were isolated and tested. SK-N-MC cells were used because they give efficient coupling for inhibition of adenylate cyclase. The clones that gave the most robust inhibition of adenylate cyclase in response to histamine were used for further study.
[^3H]-N-methylhistamine Binding
Cell pellets from histamine H3 receptor-expressing SK-N-MC cells were homogenized in 20 mM TrisHCI/0.5 mM EDTA. Supernatants from a 800 g spin were collected, recentrifuged at 30,000 g for 30 minutes. Pellets were re-homogenized in 50 mM Tris/5 mM EDTA (pH 7.4). Membranes were incubated with 0.8 nM [^3H]-N-methylhistamine plus/minus test compounds for 45 min at 25° C. and harvested by rapid filtration over GF/C glass fiber filters (pretreated with 0.3% polyethylenimine) followed by four washes with ice cold buffer. Filters were dried, added to 4 mL scintillation cocktail and then counted on a liquid scintillation counter. Non-specific binding was defined with 10 μM histamine. The pKi values were calculated based on a Kd of 800 pM and a ligand concentration ([L]) of 800 pM according to the formula: Ki=(IC50)/(1+([L]/(Kd))

[1] = 0.8 nM [3H]-N-methylhistamine, 45 min at 25° C., SK-N-MC cell membranes, […], read-out: Ki
[2] = 0.8 nM [3H]-N-methylhistamine, 45 min at 25° C., SK-N-MC cell membranes, Ki=(IC50)/(1+([L]/(Kd)), read-out: Ki

T1 sequence (Q9Y5N1 whole entry): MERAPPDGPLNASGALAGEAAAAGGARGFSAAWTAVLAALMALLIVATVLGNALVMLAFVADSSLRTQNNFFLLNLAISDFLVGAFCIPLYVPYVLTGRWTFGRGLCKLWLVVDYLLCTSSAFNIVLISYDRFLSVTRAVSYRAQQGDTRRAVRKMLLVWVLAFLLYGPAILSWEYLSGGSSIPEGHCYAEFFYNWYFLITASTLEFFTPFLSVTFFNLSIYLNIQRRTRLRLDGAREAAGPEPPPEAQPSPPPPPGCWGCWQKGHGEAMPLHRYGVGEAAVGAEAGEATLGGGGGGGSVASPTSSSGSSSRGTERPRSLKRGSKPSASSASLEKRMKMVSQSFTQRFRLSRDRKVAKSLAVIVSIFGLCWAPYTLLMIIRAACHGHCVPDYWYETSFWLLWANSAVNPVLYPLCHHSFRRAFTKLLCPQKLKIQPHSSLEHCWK

Ki [2] [nM]	Compound	further results
	c1ccc2c(c1)ncn2C1CCN(Cc2ccc(OCCCN3CCCCC3)cc2)CC1 [Example 60, 1-{1-[4-(3-Piperidin-1-yl-propoxy)-benzyl]-piperidin-4-yl}-1H-benzoimidazole]	Ki [1]: 2 nM
2	c1cncc(C2CCCCN2Cc2ccc(OCCCN3CCCCC3)cc2)c1 (stereo not shown) [Example 61, 1-[4-(3-Piperidin-1-yl-propoxy)-benzyl]-1,2,3,4,5,6-hexahydro-[2,3′]bipyridinyl]	
7	c1ccc(NCc2ccc(OCCCN3CCCCC3)cc2)cc1 [Example 62, Phenyl-[4-(3-piperidin-1-yl-propoxy)-benzyl]-amine]	
	Brc1ccc2c(c1)CCN2C1CCN(Cc2ccc(OCCCN3CCCCC3)cc2)CC1 [Example 63, 5-Bromo-1-{1-[4-(3-piperidin-1-yl-propoxy)-benzyl]-piperidin-4-yl}-2,3-dihydro-1H-indole]	Ki [1]: 3 nM
	c1ccc2c(c1)CCN2C1CCN(Cc2ccc(OCCCN3CCCCC3)cc2)CC1 [Example 64, 1-{1-[4-(3-Piperidin-1-yl-propoxy)-benzyl]-piperidin-4-yl}-2,3-dihydro-1H-indole]	Ki [1]: 2 nM
100	c1ccc(NCc2ccccc2OCCCN2CCCCC2)nc1 [Example 65, [2-(3-Piperidin-1-yl-propoxy)-benzyl]-pyridin-2-yl-amine]	
8	c1ccc(NCc2cccc(OCCCN3CCCCC3)c2)nc1 [Example 66, [3-(3-Piperidin-1-yl-propoxy)-benzyl]-pyridin-2-yl-amine]	
1500	Clc1ccc(NCc2ccccc2OCCCN2CCCCC2)cc1 [Example 67, (4-Chloro-phenyl)-[2-(3-piperidin-1-yl-propoxy)-benzyl]-amine]	
89	Clc1ccc(NCc2cccc(OCCCN3CCCCC3)c2)cc1 [Example 68, (4-Chloro-phenyl)-[3-(3-piperidin-1-yl-propoxy)-benzyl]-amine]	
3.9	OCCC1CCCCN1CCCOc1ccc(CN2CCCCC2)cc1 (stereo not shown) [Example 69, 2-{1-[3-(4-Piperidin-1-ylmethyl-phenoxy)-propyl]-piperidin-2-yl}-ethanol]	
380	C(=C1CCN(Cc2ccccc2OCCCN2CCCCC2)CC1)c1ccccc1 [Example 70, 1-{3-[2-(4-Benzylidene-piperidin-1-ylmethyl)-phenoxy]-propyl}-piperidine]	
1.8	C(=C1CCN(Cc2cccc(OCCCN3CCCCC3)c2)CC1)c1ccccc1 [Example 71, 1-{3-[3-(4-Benzylidene-piperidin-1-ylmethyl)-phenoxy]-propyl}-piperidine]	
1.3	C(=C1CCN(Cc2ccc(OCCCN3CCCCC3)cc2)CC1)c1ccccc1 [Example 72, 1-{3-[4-(4-Benzylidene-piperidin-1-ylmethyl)-phenoxy]-propyl}-piperidine]	
1.1	CC1CCCCN1CCCOc1ccc(CN2CCCCC2)cc1 (stereo not shown) [Example 73, 2-Methyl-1-[3-(4-piperidin-1-ylmethyl-phenoxy)-propyl]-piperidine]	
3	CN(CCc1ccccc1)Cc1cccc(OCCCN2CCCCC2)c1 [Example 74, Methyl-phenethyl-[3-(3-piperidin-1-yl-propoxy)-benzyl]-amine]	
1.6	C(=C\c1ccccc1)/CN1CCN(Cc2ccc(OCCCN3CCCCC3)cc2)CC1 [Example 75, 1-(3-Phenyl-allyl)-4-[4-(3-piperidin-1-yl-propoxy)-benzyl]-piperazine]	
1.1	CN1CCC(N(C)Cc2ccc(OCCCN3CCCCC3)cc2)CC1 [Example 76, Methyl-(1-methyl-piperidin-4-yl)-[4-(3-piperidin-1-yl-propoxy)-benzyl]-amine]	
	CC(C)N1CCC(O)(c2ccc(OCCCN3CCCCC3)cc2)CC1 [Example 77, 1-Isopropyl-4-[4-(3-piperidin-1-yl-propoxy)-phenyl]-piperidin-4-ol]	Ki [1]: 2.9 nM

Ki [2] [nM]	Compound	further results
1	CN(CCc1ccccn1)Cc1ccc(OCCCN2CCCCC2)cc1 [Example 78, Methyl-[4-(3-piperidin-1-yl-propoxy)-benzyl]-(2-pyridin-2-yl-ethyl)-amine]	
1.3	CCN(Cc1ccncc1)Cc1ccc(OCCCN2CCCCC2)cc1 [Example 79, Ethyl-[4-(3-piperidin-1-yl-propoxy)-benzyl]-pyridin-4-ylmethyl-amine]	
1	CN(Cc1ccccc1)Cc1ccc(OCCCN2CCCCC2)cc1 [Example 80, Benzyl-methyl-[4-(3-piperidin-1-yl-propoxy)-benzyl]-amine]	
140	CCN(CC)CCOc1ccc(CN2CCCCC2)cc1 [Example 81, Diethyl-[2-(4-piperidin-1-ylmethyl-phenoxy)-ethyl]-amine]	
1.6	COc1ccc(CCN(C)Cc2ccc(OCCCN3CCCCC3)cc2)cc1OC [Example 82, [2-(3,4-Dimethoxy-phenyl)-ethyl]-methyl-[4-(3-piperidin-1-yl-propoxy)-benzyl]-amine]	
1.7	CN(CCc1ccccc1)Cc1ccc(OCCCN2CCCCC2)cc1 [Example 83, Methyl-phenethyl-[4-(3-piperidin-1-yl-propoxy)-benzyl]-amine]	
5	c1ccc(NCc2ccc(OCCCN3CCCCC3)cc2)nc1 [Example 84, [4-(3-Piperidin-1-yl-propoxy)-benzyl]-pyridin-2-yl-amine]	
23	Clc1ccc(NCc2ccc(OCCCN3CCCCC3)cc2)cc1 [Example 85, (4-Chloro-phenyl)-[4-(3-piperidin-1-yl-propoxy)-benzyl]-amine]	
	OC1(c2ccc(Cl)cc2)CCN(Cc2ccc(OCCCN3CCCCC3)cc2)CC1 [Example 86, 4-(4-Chloro-phenyl)-1-[4-(3-piperidin-1-yl-propoxy)-benzyl]-piperidin-4-ol]	Ki [1]: 1.8 nM
2	CC(C)N1CCN(Cc2ccc(OCCCN3CCCCC3)cc2)CC1 [Example 88, 1-Isopropyl-4-[4-(3-piperidin-1-yl-propoxy)-benzyl]-piperazine]	
	OC1CCN(Cc2ccc(OCCCN3CCCCC3)cc2)CC1 [Example 89, 1-[4-(3-Piperidin-1-yl-propoxy)-benzyl]-piperidin-4-ol]	Ki: 0.6 nM
	c1ccc(CN2CCN(Cc3ccc(OCCCN4CCCCC4)cc3)CC2)cc1 [Example 90, 1-Benzyl-4-[4-(3-piperidin-1-yl-propoxy)-benzyl]-piperazine]	Ki [1]: 0.9 nM
5.5	c1ccc(CN(CCCn2cccc2-c2ccc(OCCCN3CCCCC3)cc2)Cc2ccccc2)cc1 [Example 92, Dibenzyl-(3-{2-[4-(3-piperidin-1-yl-propoxy)-phenyl]-pyrrol-1-yl}-propyl)-amine]	
1.3	c1ccc(CC2CCN(Cc3ccc(OCCCN4CCCCC4)cc3)CC2)cc1 [Example 93, 1-{3-[4-(4-Benzyl-piperidin-1-ylmethyl)-phenoxy]-propyl}-piperidine]	
0.7	c1cc(OCCCN2CCCCC2)ccc1CN1CCOCC1 [Example 94, 4-[4-(3-Piperidin-1-yl-propoxy)-benzyl]-morpholine]	
	c1ccc2c(c1)CCCN2Cc1ccc(OCCCN2CCCCC2)cc1 [Example 95, 1-[4-(3-Piperidin-1-yl-propoxy)-benzyl]-1,2,3,4-tetrahydro-quinoline]	Ki (0.8 nM [3H]-N-methylhistamine, 45 min at 25° C., SK-N-MC cell membranes, unit given as nm, read-out: Ki): 4.8 nM
1.5	c1cc(-c2ccc(OCCCN3CCCCC3)cc2)n(CCCN2CCCCC2)c1 [Example 96, 1-(3-{4-[1-(3-Piperidin-1-yl-propyl)-1H-pyrrol-2-yl]-phenoxy}-propyl)-piperidine]	

Compound	Ki [2] [nM]	further results
OC1(c2ccccc2)CCN(Cc2ccc(OCCCN3CCCCC3)cc2)CC1 [Example 87, 4-Phenyl-1-[4-(3-piperidin-1-yl-propoxy)-benzyl]-piperidin-4-ol]	1	
c1ccc(N2CCN(Cc3ccc(OCCCN4CCCCC4)cc3)CC2)cc1 [Example 91, 1-Phenyl-4-[4-(3-piperidin-1-yl-propoxy)-benzyl]-piperazine]	1	
